Test results taken from US20160184335A1, “ANTITUMOR AGENT” (KAKUI, CO., LTD., priority 2012, published 2016).
Like-named read-outs stand apart in the source and are kept apart here.

What was measured:
[1] = system: DMBA-induced breast cancer; assay type: in vivo; details: for changes in body weight: vs control; for general conditions: deaths: 15 rats; for day from which development of tumors was confirmed: control: day 35
Experimental: The antitumor effects of cellobiose were examined using the rat DMBA-induced breast cancer model. Specifically, 7-week-old female rats were grouped using body weight as an index, and then 7,12-dimethylbenz[a]anthracene (DMBA) (20 mg/mL/rat) was forcibly administered orally. Two doses of the test substance (4 and 40 mg/kg/day) were forcibly administered orally once a day from the day after grouping for 12 consecutive weeks.
Fifty-two 6-week-old female rats, Crl: CD (SD) (SPF), were purchased from Charles River Laboratories, Japan Inc. on Mar. 28, 2012 (Number of rats ordered: 50).
Animals, for which no abnormalities had been confirmed as a result of observation of general conditions during the quarantine and conditioning periods, were selected and then grouped by the stratified continuous randomization method using body weight as an index based on the following table of group composition (Table 1). The remaining animals were excluded from the test groups on the day of grouping and then disposed of after excessive euthanization with ether.
DMBA was weighed to the required amount using an electronic even Sartorius Laboratory balance (SARTORIUS K.K.). The weighed DMBA was added to a beaker containing sesame oil, and then the solution was stirred using a mighty magnetic stirrer (Koike precision instruments) until the DMBA was completely dissolved. After dissolution, the solution was transferred to a volumetric graduated cylinder and then diluted to a concentration of 20 mg/mL. Upon preparation, countermeasures were taken against chemical hazards to avoid inhalation and adhesion to skin by wearing masks, safety eyeglasses, and gloves. Preparation was performed before use. Any carcinogen remaining after administration was treated as medical waste.
The carcinogen was administered to each animal after grouping. Specifically, the carcinogen was forcibly administered orally at a dosage of 1 mL/animal using sonde for oral administration (disposable sonde for oral administration, FUCHIGAMI) and glass syringes (disposable syringes, TERUMO Corporation). Administration was performed using masks, safety eyeglasses and gloves in order to avoid inhalation and adhesion to skin.
Next, the test substance was weighed to the required amount using an electronic Sartorius Analytic balance (SARTORIUS K.K.), and then dissolved in the medium. The resultant was transferred to a volumetric graduated cylinder, and then diluted to concentrations of 0.8 mg/mL and 8.0 mg/mL. Preparation was performed before use. The solution of the test substance (to be administered) that had remained after administration was diluted with a large volume of tap water and then discarded.
Administration of the test substance began the day after grouping (designated as day 1). The test substance was forcibly administered orally once a day for 12 consecutive weeks.
Upon administration, the test substance solution was forcibly administered orally at 5 mL/kg/day using sonde for oral administration (disposable sonde for oral administration, FUCHIGAMI) and glass syringes (disposable syringes, TERUMO Corporation) according to the table of group composition. The fluid volume administered was calculated based on the body weight measured on the day closest to the date of administration.
After administration of the carcinogen, the general conditions were observed every day. Body weight was measured once a week.
When the development of tumors was confirmed, the number of tumors developed in each animal was measured, and then the tumor volume estimate (mm^3) of each tumor was calculated once a week. In addition, the tumor volume estimate (mm^3) of each tumor was found by shaving the hair around the relevant tumor, measuring the tumor size (major axis “a” and minor axis “b” (mm)) using a vernier caliper, calculating according to the following formula, and then finding the sum of tumor volume estimates of the tumors.
Tumor volume estimate (mm^3) of each tumor=0.5 ×a×b^2 […]

[2] = system: HeLa (human cervical cancer-derived cell line); test: XTT assay, effect on cell survival (HeLa); assay type: cell-based
Excerpt: (§1) The presence or the absence of the selective cytotoxic activity of the test substance (cellobiose) was examined on various established cell lines.
(§2) Cell species: HeLa (human cervical cancer-derived cell line), HaCaT (human-derived immortalized keratinocyte) and Hep-G2 (human liver cancer-derived cell line)
(§3) (Thawing and Passage Culture of Cells) • (1) HeLa, HaCaT, and Hep-G2 cells were thawed and then cultured in various specialized media. • (2) Cells were passaged 2 to 3 times. • (3) Cells that had recovered their growth capacity were used for the test. […]

[3] = system: HaCaT (human-derived immortalized keratinocyte); test: XTT assay, effect on cell survival (HaCaT); assay type: cell-based
Excerpt: as §1, §2, §3

[4] = system: Hep-G2 (human liver cancer-derived cell line); test: XTT assay, effect on cell survival (Hep-G2); assay type: cell-based
Excerpt: as §1, §2, §3

[5] = system: HeLa cells; test: Confirmation of the performance of cell proliferation kit (XTT) with HeLa; assay type: cell-based, human; details: 500 μM, 3 hours
Experimental: (Confirmation of the Performance of Cell Proliferation Kit (XTT)) • (1) HeLa cells were seeded in 16 wells of a 96-well plate at 1×10^4 cells/100 μL/well. • (2) Cells were cultured for 24 hours in a CO2 incubator. • (3) Dexamethasone was added at […] concentrations of 0 (control), 10, 100, and 500 μM (N=4). • (4) After addition, cells were cultured for 3 hours in the CO2 incubator. • (5) 50 μL of an XTT reagent was added. • (6) After addition, cells were cultured for 3 hours in the CO2 incubator. • (7) Absorbance was measured at 450 nm to 500 nm (ref.: 630 nm to 690 nm).

[6] = any concentration (0.001-10 mg/mL), vs cells before addition

Question: What does the source list for O=C[C@H](O)[C@@H](O)[C@H](O[C@@H]1O[C@H](CO)[C@@H](O)[C@H](O)[C@H]1O)[C@H](O)CO [cellobiose]?
Answer: effect on development of breast cancer induced by DMBA (overall conclusion) ([1]; 4 and 40 mg/kg/day oral, 12 weeks): suppresses the development of breast cancer that is induced by carcinogenic DMBA; changes in body weight ([1]; high-dose group 40 mg/kg/day oral once a day, 12 weeks): very similar changes to the control group; general conditions: deaths ([1]; high-dose group 40 mg/kg/day oral): one death was confirmed on day 76; day from which development of tumors was confirmed ([1]; high-dose group 40 mg/kg/day): 49 days; number of animals having developed tumors ([1]; high-dose group 40 mg/kg/day, day 49): 2; number of animals having developed tumors ([1]; high-dose group 40 mg/kg/day, day 84): 11; tumor volume estimate vs control ([1]; high-dose group 40 mg/kg/day, days 42 and 49): significantly lower than those of the control group; number of animals having developed tumors ([1]; high-dose group 40 mg/kg/day, until day 42): no development of tumors was confirmed until day 42; changes in body weight ([1]; low-dose group 4 mg/kg/day oral once a day, 12 weeks): very similar changes to the control group; general conditions: deaths ([1]; low-dose group 4 mg/kg/day oral): one death was confirmed on day 4; wet weight of tumor vs control ([1]; low-dose group 4 mg/kg/day, autopsy after 12 weeks): very similar to those of the control group; day from which development of tumors was confirmed ([1]; low-dose group 4 mg/kg/day): 49 days; tumor volume estimate vs control ([1]; low-dose group 4 mg/kg/day, day 42): significantly lower than those of the control group; number of animals having developed tumors ([1]; low-dose group 4 mg/kg/day, day 49): 4; number of animals having developed tumors ([1]; low-dose group 4 mg/kg/day, day 84): 11; number of animals having developed tumors ([1]; low-dose group 4 mg/kg/day, until day 42): no development of tumors was confirmed until day 42; change in survival rate compared to the control ([2]; 10 mg/mL, 3 hours, XTT): almost no change in survival rate; dead cells or cell morphological changes (photomicrographs) [2, 6]: no influence of other factors such as an increase in dead cells or cell morphological changes; change in survival rate compared to the control ([3]; 10 mg/mL, 3 hours, XTT): almost no change in survival rate; dead cells or cell morphological changes (photomicrographs) [3, 6]: no influence of other factors such as an increase in dead cells or cell morphological changes; dead cells or cell morphological changes (photomicrographs) ([4]; Hep-G2, any concentration (0.001-10 mg/mL), vs cells before addition): no influence of other factors such as an increase in dead cells or cell morphological changes; decrease in survival rate (maximum) ([4]; Hep-G2, high concentration of test substance, 3 hours, XTT): ~15%

Question: How did the “decrease in survival rate” value [5] turn out when C[C@@H]1C[C@H]2[C@@H]3CCC4=CC(=O)C=C[C@]4(C)[C@@]3(F)[C@@H](O)C[C@]2(C)[C@@]1(O)C(=O)CO [dexamethasone] was run?
Answer: about 40%
